Results: ChEMBL document CHEMBL5113494, “Novel difluoromethyl-containing 1-((4-methoxy-3-(piperazin-1-yl)phenyl)sulfonyl)-1H-indole scaffold as potent 5-HT6R antagonists: Design, synthesis, biological evaluation, and early in vivo cognition-enhancing studies” (Bioorg Med Chem, 2022)

What was measured:
in vivo [1] = settings: Sprague-Dawley, rat, po, 5 mg/kg
in vivo [2] = settings: Sprague-Dawley, rat, po, 5 mg/kg; remark: listed apart in the source
in vivo [3] = settings: Sprague-Dawley, rat, po, 5 mg/kg; remark: listed apart in the source
in vivo [4] = settings: Sprague-Dawley, rat, po, 5 mg/kg; remark: listed apart in the source
[5] = Sprague-Dawley, rat, in vivo, iv, 2 mg/kg, 24 h
in vivo [6] = settings: Sprague-Dawley, rat, iv, 2 mg/kg
physchem [7] = settings: octanol/water
physchem [8] = test: physchem

logP (physchem [7]) | pKa (physchem [8]) | SMILES | half-life at 24 h (in vivo [1]) | bioavailability at 24 h (in vivo [2]) | Cmax at 24 h (in vivo [3]) | AUC(0-t) at 24 h (in vivo [4]) | AUCt [5] | Cmax at 24 h (in vivo [6])
3.39 | 8.62 | COc1ccc(S(=O)(=O)n2cc(C(F)F)c3ccc(F)cc32)cc1N1CCNCC1 | 3.4 h | 14.4% | 24 ng/mL | 102 ng·h/mL | 290 ng·h/mL | 77 ng/mL
3.85 | 8.66 | COc1ccc(S(=O)(=O)n2cc(C(F)F)c3cc(Cl)ccc32)cc1N1CCNCC1 | – | – | – | – | – | –
3.3 | 8.78 | COc1ccc(S(=O)(=O)n2cc(C)c3ccc(F)cc32)cc1N1CCNCC1 | – | – | – | – | – | –
3.31 | 8.78 | COc1ccc(S(=O)(=O)n2cc(C(F)F)c3cc(F)ccc32)cc1N1CCNCC1 | – | – | – | – | – | –
3.22 | – | COc1ccc(S(=O)(=O)n2cc(C)c3cc(F)ccc32)cc1N1CCNCC1 | – | – | – | – | – | –

SMILES | logP (physchem [7]) | pKa (physchem [8]) | half-life at 24 h (in vivo [1]) | bioavailability at 24 h (in vivo [2]) | Cmax at 24 h (in vivo [3]) | AUC(0-t) at 24 h (in vivo [4]) | AUCt [5] | Cmax at 24 h (in vivo [6])
COc1ccc(S(=O)(=O)n2ccc3ccc(Br)cc32)cc1N1CCNCC1 | 3.73 | 8.68 | 2.1 h | 9.35% | 10 ng/mL | 32 ng·h/mL | 153 ng·h/mL | 133 ng/mL
